We go through twelve molecules from patent US10154991B2, “Anesthetic compounds and related methods of use” (priority 2012, dated 2018).

The subject of the first series is rats. In words: loss of righting reflexes (LORR) assay after IV bolus. The conditions noted are these: 20 mg/kg dose vs ED50.
Protocol: Adult male Sprague-Dawley rats (230-350 gm) were purchased from Charles River Laboratories (Wilmington, Mass.) and housed in the Massachusetts General Hospital Center for Comparative Medicine animal care facility. All drugs were administered through a femoral venous catheter pre-implanted by the vendor prior to animal delivery to our animal care facility.
Immediately after injection, rats were turned supine. […] A stopwatch was used to measure the duration of LORR, which was defined as the time from drug injection until the animal spontaneously righted itself.
As to `COC(=O)C(C)(C)OC(=O)c1cncn1[C@H](C)c1ccccc1` [Dimethyl- methoxycarbonyl metomidate, dimethyl-methoxycarbonyl metomidate], the “lethal dose relative to ED50 for LORR” value was determined as 28 fold.

The same series, now with this note: ED50 for LORR of R form over S form.
As for β-methyl-methoxycarbonyl etomidate, the “R/S ED50 ratio” value came to 1.2.

Consider `COC(=O)C(OC(=O)c1cncn1C(C)c1ccccc1)C(C)C` (centres unmarked) [isopropyl-methoxycarbonyl metomidate], for which the “R/S ED50 ratio” value is 3.0.

With methyl-methoxycarbonyl metomidate, the “R/S ED50 ratio” value came to 2.7.

For the molecule α-methyl-methoxycarbonyl etomidate, the “R/S ED50 ratio” value was 1.7.

Staying with this series, now noted: Rattus norvegicus, iv, read-out: ED50 ± SD.
On to `COC(=O)[C@H](C)COC(=O)c1cncn1[C@H](C)c1ccccc1` [α-(R)- methyl- methoxycarbonyl etomidate, α-R-methyl-methoxycarbonyl etomidate], for which the ED50 stood at 5.2 ± 0.5 mg/kg.

For `COC(=O)[C@@H](OC(=O)c1cncn1[C@H](C)c1ccccc1)C(C)C` [R-isopropyl-methoxycarbonyl metomidate], the ED50 turned out to be 3.6 ± 0.8 mg/kg.

`COC(=O)C(C)(C)OC(=O)c1cncn1[C@H](C)c1ccccc1` [Dimethyl- methoxycarbonyl metomidate, dimethyl-methoxycarbonyl metomidate]: the ED50 was 0.72 ± 0.16 mg/kg.

For the molecule `COC(=O)[C@H](OC(=O)c1cncn1[C@H](C)c1ccccc1)C(C)C` [S-isopropyl-methoxycarbonyl metomidate], the ED50 turned out to be 1.2 ± 0.19 mg/kg.

For the molecule `COC(=O)[C@@H](C)COC(=O)c1cncn1[C@H](C)c1ccccc1` [α-(S)- methyl- methoxycarbonyl etomidate, α-S-methyl-methoxycarbonyl etomidate], the ED50 is 3.1 ± 0.4 mg/kg.

As to `COC(=O)CC(C)(C)OC(=O)c1cncn1[C@H](C)c1ccccc1` [β-dimethyl- methoxycarbonyl etomidate, β-dimethyl-MOC-etomidate], the ED50 came to 1.9 ± 0.3 mg/kg.

In the case of `COC(=O)C[C@H](C)OC(=O)c1cncn1[C@H](C)c1ccccc1` [β-(S)- methyl- methoxycarbonyl etomidate, β-S-methyl-MOC-etomidate], the ED50 was determined as 2.9 ± 0.3 mg/kg.

Consider `COC(=O)COC(=O)c1cncn1[C@H](C)c1ccccc1` [Methoxycarbonyl metomidate, methoxycarbonyl metomidate], for which the ED50 came to 11.1 ± 0.8 mg/kg.

Staying with this series, now noted: duration of LORR vs log dose, rats.
Consider `COC(=O)[C@H](OC(=O)c1cncn1[C@H](C)c1ccccc1)C(C)C` [S-isopropyl-methoxycarbonyl metomidate], for which the “Slope of Duration vs. Log Dose ± SD” value is reported as 12.1±1.1 min/(log mg/kg).

The series is the same for the next values; noted with them: one rat, 20 mg/kg dose.
For `COC(=O)[C@@H](OC(=O)c1cncn1[C@H](C)c1ccccc1)C(C)C` [R-isopropyl-methoxycarbonyl metomidate], the “death of a rat after dosing” value is reported as “died after receiving a 20 mg/kg dose”.

Consider `COC(=O)C(C)(C)OC(=O)c1cncn1[C@H](C)c1ccccc1` [Dimethyl- methoxycarbonyl metomidate, dimethyl-methoxycarbonyl metomidate], for which the “death of a rat after dosing” value is on record as “died”.

Staying with this series, now noted: rat, in vivo.
As for `COC(=O)C(C)(C)OC(=O)c1cncn1[C@H](C)c1ccccc1` [Dimethyl- methoxycarbonyl metomidate, dimethyl-methoxycarbonyl metomidate], the “hypnotic potency compared with methoxycarbonyl etomidate and etomidate” value is “nearly an order of magnitude higher than that of methoxycarbonyl etomidate and similar to that of etomidate”; the “in vivo duration of action compared with methoxycarbonyl etomidate and etomidate” value was “intermediate between those of methoxycarbonyl etomidate and etomidate”.

System in a further series: not listed separately
Put plainly: In vitro metabolic half-life of hypnotics in rat blood. In kind it is in vitro ADME.
Details: not given
On the procedure:
On the day of study, whole blood was drawn from the femoral venous catheters of 3 Sprague-Dawley rats (1-2 ml/rat), immediately anticoagulated with heparin (38 U), pooled, and stored on ice. A 1 ml aliquot of blood was warmed at 37° C. for 5 minutes and hypnotic (from a 40 mM in dimethyl sulfoxide stock solution) was added to a final concentration of 100 μM. After the desired incubation time, a 150 μl sample was removed and the metabolic reaction was quenched with 150 μl acetonitrile (Sigma-Aldrich, St. Louis, Mo.). Zero time point samples were prepared by adding 150 μl acetonitrile to blood prior to adding hypnotic (from a 4 mM in dimethyl sulfoxide stock solution). The quenched samples were centrifuged and the resultant supernatant separated and stored at −20° C. until analyzed. Hypnotic concentrations in thawed samples were determined by high performance liquid chromatography using a Varian Prostar system with a 4.6×250 mm Proto 300 C18 column (Nest Group, Southborough, Mass.) with the UV detector set at 240 nm.
For the molecule `COC(=O)C(C)(C)OC(=O)c1cncn1[C@H](C)c1ccccc1` [Dimethyl- methoxycarbonyl metomidate, dimethyl-methoxycarbonyl metomidate], the “in vitro metabolic half-life compared with methoxycarbonyl etomidate and etomidate” value is “intermediate between those of methoxycarbonyl etomidate and etomidate”.

Still in this series, the particulars now being: Sprague-Dawley, rat, pooled heparinised whole blood, rat blood, 37° C., 100 μM; read-out: Blood Half-Life (95% CI).
In the case of `COC(=O)[C@H](C)COC(=O)c1cncn1[C@H](C)c1ccccc1` [α-(R)- methyl- methoxycarbonyl etomidate, α-R-methyl-methoxycarbonyl etomidate], the half-life at 100 μM stood at 11.4 s.

With `COC(=O)[C@@H](OC(=O)c1cncn1[C@H](C)c1ccccc1)C(C)C` [R-isopropyl-methoxycarbonyl metomidate], the half-life at 100 μM amounted to 9 s.

Turning to `COC(=O)[C@H](OC(=O)c1cncn1[C@H](C)c1ccccc1)C(C)C` [S-isopropyl-methoxycarbonyl metomidate], the half-life at 100 μM is 930 s.

Turning to `COC(=O)[C@@H](C)COC(=O)c1cncn1[C@H](C)c1ccccc1` [α-(S)- methyl- methoxycarbonyl etomidate, α-S-methyl-methoxycarbonyl etomidate], the half-life at 100 μM was found to be 45.6 s.

Consider `COC(=O)CC(C)(C)OC(=O)c1cncn1[C@H](C)c1ccccc1` [β-dimethyl- methoxycarbonyl etomidate, β-dimethyl-MOC-etomidate], for which the half-life at 100 μM worked out at 1400 s.

With `COC(=O)C[C@H](C)OC(=O)c1cncn1[C@H](C)c1ccccc1` [β-(S)- methyl- methoxycarbonyl etomidate, β-S-methyl-MOC-etomidate], the half-life at 100 μM came out at 43.2 s.

As for `COC(=O)COC(=O)c1cncn1[C@H](C)c1ccccc1` [Methoxycarbonyl metomidate, methoxycarbonyl metomidate], the half-life at 100 μM is less than 1.8 s.

The series is the same for the next values; noted with them: Sprague-Dawley, rat, pooled heparinised whole blood, rat blood; bound based on the lower limit of quantification; read-out: metabolic half-life in rat blood (converted).
For the molecule `COC(=O)COC(=O)c1cncn1[C@H](C)c1ccccc1` [Methoxycarbonyl metomidate, methoxycarbonyl metomidate], the half-life at 100 μM was less than 2 s.

Staying with this series, now noted: Sprague-Dawley, rat, rat blood, 37° C., 100 μM; read-out: Blood Half-Life (95% CI).
With `COC(=O)C(C)(C)OC(=O)c1cncn1[C@H](C)c1ccccc1` [Dimethyl- methoxycarbonyl metomidate, dimethyl-methoxycarbonyl metomidate], the half-life at 100 μM came out at 522 s.

Staying with this series, now noted: rat blood.
Take `COC(=O)[C@H](OC(=O)c1cncn1[C@H](C)c1ccccc1)C(C)C` [S-isopropyl-methoxycarbonyl metomidate]: the “metabolic half-life of S form compared with R form” value is “two orders of magnitude longer”.

For the molecule `COC(=O)[C@@H](C)COC(=O)c1cncn1[C@H](C)c1ccccc1` [α-(S)- methyl- methoxycarbonyl etomidate, α-S-methyl-methoxycarbonyl etomidate], the “metabolic half-life of S form compared with R form” value was “at least four-fold longer”.

System in the next series: not listed separately
In words: Octanol:water partition coefficients. In kind it is physicochemical. The conditions noted are these: 10 mM Tris pH 7.4; read-out: Octanol/Water Partition Coefficient ± SD (converted). On the procedure: One mg of each hypnotic was added to 10 ml of water buffered with 10 mM Tris (pH 7.4) and 0.5 ml or 1 ml of octanol. The mixture was stirred overnight and then centrifuged to more fully separate the organic and aqueous phases. The relative hypnotic concentrations in each phase (i.e. the partition coefficient) were determined by high performance liquid chromatography as described for blood.
For `COC(=O)[C@H](C)COC(=O)c1cncn1[C@H](C)c1ccccc1` [α-(R)- methyl- methoxycarbonyl etomidate, α-R-methyl-methoxycarbonyl etomidate], the logD is 2.83.

Take `COC(=O)[C@@H](OC(=O)c1cncn1[C@H](C)c1ccccc1)C(C)C` [R-isopropyl-methoxycarbonyl metomidate]: the logD is 3.58.

In the case of `COC(=O)C(C)(C)OC(=O)c1cncn1[C@H](C)c1ccccc1` [Dimethyl- methoxycarbonyl metomidate, dimethyl-methoxycarbonyl metomidate], the logD was 2.82.

Turning to `COC(=O)[C@H](OC(=O)c1cncn1[C@H](C)c1ccccc1)C(C)C` [S-isopropyl-methoxycarbonyl metomidate], the logD is 3.46.

Turning to `COC(=O)[C@@H](C)COC(=O)c1cncn1[C@H](C)c1ccccc1` [α-(S)- methyl- methoxycarbonyl etomidate, α-S-methyl-methoxycarbonyl etomidate], the logD is 2.72.

On to `COC(=O)CC(C)(C)OC(=O)c1cncn1[C@H](C)c1ccccc1` [β-dimethyl- methoxycarbonyl etomidate, β-dimethyl-MOC-etomidate], for which the logD is 3.2.

For `COC(=O)C[C@H](C)OC(=O)c1cncn1[C@H](C)c1ccccc1` [β-(S)- methyl- methoxycarbonyl etomidate, β-S-methyl-MOC-etomidate], the logD is 2.68.

Regarding `COC(=O)COC(=O)c1cncn1[C@H](C)c1ccccc1` [Methoxycarbonyl metomidate, methoxycarbonyl metomidate], the logD was 2.2.
